Experiments:
HMOX1 [1] = test: RT-qPCR of HMOX1 expression in HT-1080 cells; format: cell-based; details: for expression of HMOX1 relative to ACTB, absence of ferrostatin-1: HT-1080, 1 μM, four hours; for effect of ferrostatin-1 on the substance's induction of HMOX1: HT-1080, sodium arsenite 80 μM, hemin 5 μM, RSL3 1 μM, with or without 1 μM ferrostatin-1, four hours, normalized to DMSO
Protocol: (§1) To confirm HMOX1 induction by the GPX4 inhibitors, an RT-qPCR assay was performed using three ferroptosis sensitive cancer cell lines: the fibrosarcoma cell line HT-1080, a Ewing's sarcoma cell line A673, and a renal clear cell carcinoma cell line 786-O. Briefly, cells were exposed to 1 μM ML162 or 1 μM RSL3 for 4 hours, RNA was isolated and an RT-qPCR assay was performed.
To further validate induction of HMOX1 mRNA expression by GPX4 inhibition, RT-qPCR was performed using varying doses of the RSL3 inhibitor. Briefly, HT-1080 cells were exposed to 5 μM RSL3, 1 μM RSL3, and 0.2 μM RSL3 for four hours, RNA was isolated and an RT-qPCR assay was performed to quantify HMOX1 expression. DMSO was used as a control exposure.
(§2) Briefly, HT-1080, A673, and 786-O cells were exposed to 1 μM ML162 or 1 μM RLS3 with or without 1 μM ferrostatin-1 for four hours, RNA was isolated and an RT-qPCR assay was performed to quantify HMOX1 expression. DMSO was used as a control exposure.
Sodium arsenite and hemin are known to be inducers of general oxidative stress in cells. Briefly, HT-1080 cells were exposed to sodium arsenite (80 μM), hemin (5 μM), ML162 (1 μM), or RSL3 (1 μM) with or without 1 μM ferrostatin-1 for four hours, RNA was isolated and an RT-qPCR assay was performed to quantify HMOX1 expression. DMSO was used as a control exposure.

HMOX1 [2] = test: nascent RNA sequencing of HT-1080 cells exposed to GPX4 inhibitors; format: cell-based; details: HT-1080, 1 μM, 1 hour, Pval<10^−2
Protocol: (§3) To assess the transcriptional response of a cell to inhibition of GPX4, we exposed two cell lines to two different chemical inhibitors of GPX4 (ML162 and RSL3; available from Sigma Aldrich and Apex Bio respectively) and examined the transcriptional responses using a nascent RNA sequencing protocol. Briefly, a fibrosarcoma cell line HT-1080 and a lung fibroblast cell line IMR90 were exposed to 1 μM ML162 or 1 μM RSL3 for 1 hour and the nascent RNA sequencing protocol was performed.

HMOX1 [3] = test: RT-qPCR of HMOX1 expression in 786-O cells; format: cell-based; details: 1 μM, four hours
Protocol: as §1, §2

HMOX1 [4] = test: RT-qPCR of HMOX1 expression in A673 cells; format: cell-based; details: A673, 1 μM, four hours
Protocol: as §1, §2

HMOX1 [5] = test: nascent RNA sequencing of IMR90 cells exposed to GPX4 inhibitors; format: cell-based; details: IMR90, 1 μM, 1 hour, Pval 10^−3
Protocol: as §3

HMOX1 [6] = test: RT-qPCR of HMOX1, ferrostatin-1 rescue of GPX4 inhibitor-mediated induction in HT-1080, A673 and 786-O cells; format: cell-based; details: HT-1080, A673, 786-O; 1 μM ferrostatin-1 with 1 μM ML162 or RSL3, four hours
Protocol: as §2

[7] = test system: HT-1080, A673, and 786-O cells lines; details: ferrostatin-1 added to the culture media; HT-1080, A673, 786-O; cited from earlier work

Row | Compound | expression of HMOX1 relative to ACTB, absence of ferrostatin-1 (HMOX1 [1]) | effect of ferrostatin-1 on the substance's induction of HMOX1 (HMOX1 [1]) | differential expression of HMOX1 (nascent RNA sequencing) (HMOX1 [2]) | expression of HMOX1 relative to ACTB, absence of ferrostatin-1 (HMOX1 [3]) | expression of HMOX1 relative to ACTB, absence of ferrostatin-1 (HMOX1 [4]) | differential expression of HMOX1 (nascent RNA sequencing) (HMOX1 [5]) | further results
1 | COC(=O)c1ccc([C@@H]2c3[nH]c4ccccc4c3C[C@@H](C(=O)OC)N2C(=O)CCl)cc1 [RSL3] | HMOX1 expression was observed in all three cell lines | dependent on lipid peroxidation | strongly differentially expressed | HMOX1 expression was observed in all three cell lines | HMOX1 expression was observed in all three cell lines | strongly differentially expressed | dose dependence of HMOX1 expression relative to ACTB (HMOX1 [1]; HT-1080, 5 μM, 1 μM and 0.2 μM RSL3, four hours): proportional to the dose
2 | COc1ccc(N(C(=O)CCl)C(C(=O)NCCc2ccccc2)c2cccs2)cc1Cl (centres unmarked) [ML162] | HMOX1 expression was observed in all three cell lines | – | strongly differentially expressed | HMOX1 expression was observed in all three cell lines | HMOX1 expression was observed in all three cell lines | strongly differentially expressed | expression of HMOX1 relative to ACTB, presence of ferrostatin-1 (HMOX1 [1]; HT-1080, 1 μM inhibitor with 1 μM ferrostatin-1, four hours): induced HMOX1 even in the presence of ferrostatin-1
3 | O=[As]O [sodium arsenite] | – | not affected by the presence of ferrostatin-1 | – | – | – | – | –
4 | CCOC(=O)c1ccc(NC2CCCCC2)c(N)c1 [ferrostatin-1] | – | – | – | – | – | – | effect of ferrostatin-1 on induction of HMOX1 by RSL3 and ML162 (HMOX1 [6]): sufficient to prevent induction of HMOX1 in most conditions; cellular viability of cells treated with small molecules that induce lipid peroxidation (e.g., GPX4 inhibitors) [7]: rescues cellular viability
5 | hemin | – | not affected by the presence of ferrostatin-1 | – | – | – | – | –
